Experiments:
Assay type in all cases: cell-based, mice
[1] = test system: GNE Myopathy myotubes; experiment: Intracellular ROS (DCF fluorescence) in cultured myotubes; settings: GNE Myopathy myotubes treated with 5 mM for 72 h; mean±SEM; untreated 1113±30, littermate controls 115±15
Experimental: (§1) Cell cultures and myotubes analysis: Myocytes from Gne^−/−hGNED176V-Tg mice and littermate controls were proliferated in DMEM containing 20% fetal bovine serum and 1% chicken embryo extracts in a 5% CO2 and induced to differentiation in a serum free medium, OPTIPRO™ SFM (Gibco), to make the cells hyposialylated. Where indicated, myotubes were treated with 5 mM NeuAc (Japan Food and Liquor Alliance) or 5 mM NAC (Sigma) for 72 h.
For the analysis of intracellular ROS, a popular fluorescence-based probe, 2′,7′-dichlorodihydrofluorescein diacetate (DCFH-DA) (Wang et al., Free Radical Biology and Medicine. 1999; 27:612-616; Halliwell and Whiteman, Br J Pharmacol. 2004; 142:231-255) was used. Cells were loaded with 5 μM DCFH-DA (Invitrogen) in PBS for an hour and recovered with phenol red-free DMEM (Gibco) for 30 min at 37° C. in a 5% CO2 incubator. Then the cells were placed in a CYTOFLUOR® Series 4000 multi-well fluorescence plate reader (PerSeptive Biosystems) with temperature maintained at 37° C. The excitation filter was set at 485 nm and the emission filter was set at 530 nm. The fluorescence from each well was captured and recorded.

[2] = test system: GNE Myopathy myotubes; experiment: ROS generation under pro-oxidants (H2O2 or menadione), ΔDCF fluorescence
Experimental: as §1
To evaluate the ROS generation under pro-oxidants, myotubes cultured in each condition were loaded with 5 μM DCFH-DA for 1 h and recovered in the different concentrations of H2O2 or menadione-containing medium. After 30 min incubation in dark at 37° C., the microplate containing cells with pro-oxidants were placed in a plate reader and fluorescence was captured at every 5 min until it reached a plateau. Maximum fluorescence of each well was used for analysis.

[3] = test system: GNE Myopathy myotubes; experiment: Cell viability assay under pro-oxidants (propidium iodide/Hoechst co-staining); settings: treated GNE Myopathy myotubes under menadione exposure
Experimental: as §1
For the cell viability assay, myotubes were exposed to H2O2 for 24 h and to menadione for 6 h before staining. Nuclear staining with Hoechst 33342 (Thermo Scientific) and propidium iodide (PI) (Dojindo) was used for morphological assessment of apoptosis by fluorescence microscopy (Lee and Shacter, Journal of Biological Chemistry. 1999; 274:19792-19798). Minimum 200 nuclei were counted and cell viability was calculated by the exclusion of PI-stained nuclei from Hoechst 33342-stained nuclei.

Compound: CC(=O)N[C@@H](CS)C(=O)O [NAC, N-acetylcysteine]
- Mean DCF fluorescence (intracellular ROS generation) [1]: 191±10 AFU
- Protective effect in the high oxidative stress condition ([2]; GNE Myopathy myotubes, H2O2 or menadione, more evident for menadione): worked effectively
- ΔDCF fluorescence compared to littermate myotubes ([2]; treated GNE Myopathy myotubes under menadione exposure): comparable
- Cell viability compared to littermate myotubes [3]: even better
